Measurements: patent US20200002354A1, “HEXAHYDROPYRAZINOBENZ- OR -PYRIDO-OXAZEPINES CARRYING AN OXYGEN-CONTAINING SUBSTITUENT AND USE THEREOF IN THE TREATMENT OF 5-HT2C-DEPENDENT DISORDERS” (AbbVie Deutschland GmbH & Co. KG, priority 2015, published 2020)
Counter-ions that a name gives are not always drawn. Like-named read-outs stand apart in the source and are kept apart here.

Columns and labels:
5-HT2C receptor = molecular target: T1, 5-HT2C receptor (Homo sapiens, UniProt P28335); assay: Human 5-HT2C functional assay (beta-arrestin2 recruitment, U2OS_HTR2C_β-Arrestin cells); type: cell-based; conditions: for EC50: Potency (EC50 5-HT2C) in functional assay, agonism, read-out: EC50 5-HT2C; for Emax: relative efficacy vs maximal effect induced by 5-HT (defined as 100%)
T1 construct: host or cells: U2OS
T1 sequence (P28335 33-458): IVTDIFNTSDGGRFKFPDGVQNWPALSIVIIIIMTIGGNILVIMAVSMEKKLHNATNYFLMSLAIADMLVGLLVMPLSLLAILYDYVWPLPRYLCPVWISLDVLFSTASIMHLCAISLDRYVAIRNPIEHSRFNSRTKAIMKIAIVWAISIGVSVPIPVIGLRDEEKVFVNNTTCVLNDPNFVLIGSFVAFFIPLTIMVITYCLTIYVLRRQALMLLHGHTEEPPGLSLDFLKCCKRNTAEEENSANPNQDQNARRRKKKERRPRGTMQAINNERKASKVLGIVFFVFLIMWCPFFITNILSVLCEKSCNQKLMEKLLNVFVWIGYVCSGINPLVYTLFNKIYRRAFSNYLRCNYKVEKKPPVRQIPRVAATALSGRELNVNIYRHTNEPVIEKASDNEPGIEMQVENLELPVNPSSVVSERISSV
T1 sequence (P32121 whole entry partner): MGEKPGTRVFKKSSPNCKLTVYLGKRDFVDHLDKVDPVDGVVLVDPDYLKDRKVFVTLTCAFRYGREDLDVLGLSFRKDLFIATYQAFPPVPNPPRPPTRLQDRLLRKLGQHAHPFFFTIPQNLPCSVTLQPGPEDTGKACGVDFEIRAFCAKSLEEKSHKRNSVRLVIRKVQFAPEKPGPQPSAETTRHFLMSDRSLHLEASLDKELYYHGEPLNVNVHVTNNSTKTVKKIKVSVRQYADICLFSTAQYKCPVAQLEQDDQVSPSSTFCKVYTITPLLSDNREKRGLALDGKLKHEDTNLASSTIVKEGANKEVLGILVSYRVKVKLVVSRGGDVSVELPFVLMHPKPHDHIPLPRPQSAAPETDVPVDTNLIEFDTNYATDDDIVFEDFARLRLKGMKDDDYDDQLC
Protocol: 1. Human 5-HT2C Functional Assay
The functional activity of compounds of formula I was assayed by incubation with U2OS_HTR2C_β-Arrestin cells (DiscoverX, 93-0289C3) to induce beta-arrestin2 recruitment to the 5-HT2C receptor. The agonist-induced recruitment and proximity of the receptor and beta-arrestin2 leads to complementation and formation of active β-galactosidase. The enzyme complementation results in enzyme activity, which is measured following the termination of the agonist incubation using DiscoveRx's detection reagent, which contains a chemiluminescent substrate which produces a high intensity signal. Cells were plated and a medium-change to a 1% serum containing medium was performed 24 h later. The next day, test compounds were added and incubated for 1.5 h before addition of detection reagent.
The response produced was measured and compared with the response produced by 10 [mu]M 5-HT or the maximal effect induced by 5-HT (defined as 100%) to which it was expressed as a percentage response (relative efficacy).

human 5-HT2A receptor = molecular target: T2, human 5-HT2A receptor (Homo sapiens, UniProt P28223); assay: Human 5-HT2A functional assay (calcium mobilisation in CHO-K1 cells, FLIPR); type: cell-based; conditions: based on agonism: EC50 5-HT2A/EC50 5-HT2C
T2 construct: expressed in transfected cells; host or cells: CHO-K1
T2 sequence (P28223 whole entry): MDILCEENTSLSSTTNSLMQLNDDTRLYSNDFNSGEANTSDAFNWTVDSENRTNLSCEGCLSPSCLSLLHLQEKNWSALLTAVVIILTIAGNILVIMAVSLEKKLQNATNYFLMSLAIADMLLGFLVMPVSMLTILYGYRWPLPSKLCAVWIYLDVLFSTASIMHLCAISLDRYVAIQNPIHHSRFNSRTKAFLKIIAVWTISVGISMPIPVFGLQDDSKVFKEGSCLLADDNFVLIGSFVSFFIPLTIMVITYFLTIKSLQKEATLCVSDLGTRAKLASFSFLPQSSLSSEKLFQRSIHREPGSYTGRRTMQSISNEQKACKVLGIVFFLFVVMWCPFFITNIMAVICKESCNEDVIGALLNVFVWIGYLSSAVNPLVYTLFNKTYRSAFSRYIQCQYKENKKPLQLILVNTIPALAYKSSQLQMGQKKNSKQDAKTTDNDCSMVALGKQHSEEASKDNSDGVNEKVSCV
Protocol: 2. Human 5-HT2A Functional Assay
Functional activity on the 5-HT2A receptor was determined by testing the effect of the compounds I on calcium mobilisation in CHO-K1 cells, stably transfected with human 5-HT2A receptor. Cells were seeded into sterile black 384-well plates with clear bottom at 25,000 cells/well in a volume of 25 μl and grown for 5-6 hours at 37° C., in 5% CO2 in tissue culture medium (“Ultra CHO” by LONZA), containing 1% dialysed FCS and 50 μg/ml gentamicin (Invitrogen). After this incubation, medium was replaced by a serum free version of the same tissue culture medium followed by incubation overnight at 37° C. and in 5% CO2. Cells were then loaded with a fluorescent calcium-sensitive dye in the presence of 0.07% probenecid for an hour at 37° C., according to the manufacturer's protocol (Ca5-Assay Kit, Molecular Devices), followed by an additional 60 min incubation at room temperature. Serial compound dilutions (final concentrations of 10^−10 to 10^−5M, prepared in HBSS+50 mM HEPES) were first added to the cells alone (“first addition” to assess agonism on the 5-HT2A receptor), then after 8 min, serotonin was added to the same wells at a final concentration of 3×10^−8 M (“second addition” to see potential antagonistic effect) and the maximal calcium response was determined using a FLIPR® Tetra instrument (Molecular Devices) in each of the two steps. The relative efficacy of the compounds was calculated as a percentage of the maximal effect induced by serotonin alone (defined as 100%). To determine EC50/IC50 values, concentration-response curves were fitted using a four-parameter logistic equation (IDBS Biobookml). Kb values were calculated from IC50 values, according to Cheng & Prusoff

human 5-HT2B receptor = molecular target: T3, human 5-HT2B receptor (Homo sapiens, UniProt P41595); assay: Human 5-HT2B functional assay (calcium mobilisation in CHO-FlpIn cells, FLIPR); type: cell-based; conditions: based on agonism: EC50 5-HT2B/EC50 5-HT2C
T3 construct: expressed in transfected cells; host or cells: CHO-FlpIn
T3 sequence (P41595 whole entry): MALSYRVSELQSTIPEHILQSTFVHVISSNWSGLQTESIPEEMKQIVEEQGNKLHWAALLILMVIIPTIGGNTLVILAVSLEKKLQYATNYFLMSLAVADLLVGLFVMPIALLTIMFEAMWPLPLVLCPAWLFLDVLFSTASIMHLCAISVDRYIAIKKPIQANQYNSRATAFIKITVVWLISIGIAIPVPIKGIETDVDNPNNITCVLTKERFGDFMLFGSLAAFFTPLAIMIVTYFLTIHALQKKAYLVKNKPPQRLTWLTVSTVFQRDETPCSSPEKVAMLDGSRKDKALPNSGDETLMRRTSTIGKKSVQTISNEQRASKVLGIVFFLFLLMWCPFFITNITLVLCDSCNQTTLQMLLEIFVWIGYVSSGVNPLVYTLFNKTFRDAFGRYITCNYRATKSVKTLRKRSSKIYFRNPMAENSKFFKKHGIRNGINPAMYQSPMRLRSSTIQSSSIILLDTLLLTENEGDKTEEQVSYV
Protocol: 3. Human 5-HT2B Functional Assay
Functional activity on the 5-HT2B receptor was determined by testing the effect of the compounds I on calcium mobilisation in CHO-FlpIn cells, stably transfected with human 5-HT2B receptor. Cells were seeded into sterile black 384-well plates with clear bottom at 30,000 cells/well in a volume of 25 μl and grown overnight at 37° C., in 5% CO2 in tissue culture medium (“CHO-S-SFM II” by Invitrogen), containing 1% dialysed FCS and 50 μg/ml gentamicin (Invitrogen). On the next morning, medium was replaced by a serum free version of the same tissue culture medium for a further incubation for 4 hours at 37° C. and in 5% CO2. Cells were then loaded with a fluorescent calcium-sensitive dye in the presence of 0.07% probenecid for an hour at 37° C., according to the manufacturer's protocol (Ca5-Assay Kit, Molecular Devices), followed by an additional 60 min incubation at room temperature. Serial compound dilutions (final concentrations of 10^−10 to 10^−5M, prepared in HBSS+50 mM HEPES) were first added to the cells alone (“first addition” to assess agonism on the 5-HT2B receptor), then after 8 min, serotonin was added to the same wells at a final concentration of 10^−8 M (“second addition” to see potential antagonistic effect) and the maximal calcium response was determined using a FLIPR® Tetra instrument (Molecular Devices) in each of the two steps. The relative efficacy of the compounds was calculated as a percentage of the maximal effect induced by serotonin alone (defined as 100%). To determine EC50/IC50 values, concentration-response curves were fitted using a four-parameter logistic equation (IDBS Biobookml). Kb values were calculated from IC50 values, according to Cheng & Prusoff

[1] = Metabolic stability in human liver microsomes, unbound intrinsic clearance; type: in vitro ADME; conditions: pH 7.4, unbound intrinsic clearance (human), Clint unbound = Cl int/fu mic, read-out: Cl int, mic unb. (h)
Protocol: Samples of the tested compounds (0.5 μM) were preincubated together with human liver microsomes (0.25 mg of microsomal protein/mL) in 0.05 M potassium phosphate buffer of pH 7.4 in microtiter plates at 37° C. for 5 minutes. The reaction was started by adding NADPH (1.0 mM). After 0, 5, 10, 15, 20 and 30 minutes, an aliquot was removed, the reaction was cooled and stopped by adding twice the amount of quench solution consisting of acetonitrile/methanol 1:1, and containing 0.2 μM carbutamide as internal standard. The samples were frozen until analyzed. The remaining concentration of undegraded test substance was determined by liquid chromatography-tandem mass spectrometry (LC-MS/MS). The half-life (t1/2) was determined from the gradient of the ratio of the signal of (test substance/internal standard)/unit time plot, allowing the calculation of the half-life of the test substance, assuming first order kinetics, from the decrease in the concentration of the compound with time. The microsomal clearance (mClint) was calculated as follows: mClint=((ln(2)/t ½)/Microsomal Protein Concentration (mg/ml))*1000, leading to the unit of uL/min/mg. The scaled clearance (mClin_scaled) was calculated as mCLint_scaled=m CLint*(Microsomal Yield (mg/kg BW))/1000000*60, leading to the units L/h/kg. The Microsomal Yield is defined by the specifics of the used microsomes. Calculations were modified from references: Di, The Society for Biomolecular Screening, 2003, 453-462; Obach, D M D, 1999 vol 27. N 11, 1350-1359.
Calculation of Unbound Intrinsic Clearance
C1int unbound=C1 int/fu mic

| Compound | EC50 (5-HT2C receptor) [nM] | Emax (5-HT2C receptor) [%] | Selectivity over 5-HT2A (human 5-HT2A receptor) | Selectivity over 5-HT2B (human 5-HT2B receptor) | CLint scaled at 0.5 μM ([1]; liver microsomes) [mL/min/kg] | CLint scaled at 0.5 μM ([1]; microsomes) [mL/min/kg] |
| --- | --- | --- | --- | --- | --- | --- |
| COC[C@@H]1C[C@@H]2CNCCN2c2cccc(Cl)c2O1.Cl [Example 1, (4aR,6S)-8-Chloro-6-(methoxymethyl)-2,3,4,4a,5,6-hexahydro-1H-pyrazino[2,1-d][1,5]benzoxazepine hydrochloride] | < 20 | > 70 | +++ (>100) | +++ (>100) | < 83.3 | – |
| Cl.OC[C@@H]1C[C@@H]2CNCCN2c2cccc(Cl)c2O1 [Example 14, [(4aR,6S)-8-Chloro-2,3,4,4a,5,6-hexahydro-1H-pyrazino[2,1-d][1,5]benzoxazepin-6-yl]methanol hydrochloride] | 20 to 200 | > 70 | +++ (>100) | – | – | < 83.3 |
| OC[C@@H]1C[C@@H]2CNCCN2c2cc(F)cc(Cl)c2O1 [Example 17, [(4aR,6S)-8-Chloro-10-fluoro-2,3,4,4a,5,6-hexahydro-1H-pyrazino[2,1-d][1,5]benzoxazepin-6-yl]methanol hydrochloride] | < 20 | > 70 | – | – | < 83.3 | – |
| Cl.OC[C@@H]1C[C@@H]2CNCCN2c2c(F)c(F)cc(Cl)c2O1 [Example 20, [(4aR,6S)-8-Chloro-10,11-difluoro-2,3,4,4a,5,6-hexahydro-1H-pyrazino[2,1-d][1,5]benzoxazepin-6-yl]methanol hydrochloride] | 20 to 200 | > 70 | +++ (>100) | – | < 83.3 | – |
| Cl.OC[C@@H]1C[C@@H]2CNCCN2c2cc(F)cc(C(F)F)c2O1 [Example 23, [(4aR,6S)-8-(Difluoromethyl)-10-fluoro-2,3,4,4a,5,6-hexahydro-1H-pyrazino[2,1-d][1,5]benzoxazepin-6-yl]methanol hydrochloride] | < 20 | > 70 | + (from 10 to 30) | – | < 83.3 | – |
| COC[C@@H]1C[C@@H]2CNCCN2c2cc(Cl)cc(F)c2O1 [Example 25, (4aR,6S)-10-Chloro-8-fluoro-6-(methoxymethyl)-2,3,4,4a,5,6-hexahydro-1H-pyrazino[2,1-d][1,5]benzoxazepine] | 20 to 200 | > 70 | +++ (>100) | – | < 83.3 | – |
| COC[C@@H]1C[C@@H]2CNCCN2c2nccc(C(F)F)c2O1.O=C(O)C(F)(F)F [Example 27, (6S,7aR)-4-(Difluoromethyl)-6-(methoxymethyl)-7,7a,8,9,10,11-hexahydro-6H-pyrazino[1,2-d]pyrido[3,2-b][1,4]oxazepine; 2,2,2-trifluoroacetic acid] | 20 to 200 | > 70 | ++ (from >30 to 100) | – | – | < 83.3 |
| COC[C@@H]1C[C@@H]2CNCCN2c2cc(F)cc(C)c2O1.Cl [Example 41, (4aR,6S)-10-Fluoro-6-(methoxymethyl)-8-methyl-2,3,4,4a,5,6-hexahydro-1H-pyrazino[2,1-d][1,5]benzoxazepine hydrochloride] | < 20 | > 70 | +++ (>100) | – | < 83.3 | – |
| COC[C@@H]1C[C@@H]2CNCCN2c2cccc(OC(F)F)c2O1 [Example 42, (4aR,6S)-8-(Difluoromethoxy)-6-(methoxymethyl)-2,3,4,4a,5,6-hexahydro-1H-pyrazino[2,1-d][1,5]benzoxazepine] | < 20 | > 70 | + (from 10 to 30) | – | < 83.3 | – |
| COC[C@@H]1C[C@@H]2CNCCN2c2cc(OC)cc(Cl)c2O1.Cl [Example 44, (4aR,6S)-8-Chloro-10-methoxy-6-(methoxymethyl)-2,3,4,4a,5,6-hexahydro-1H-pyrazino[2,1-d][1,5]benzoxazepine hydrochloride] | 20 to 200 | > 70 | – | ++ (from >30 to 100) | < 83.3 | – |
| COC[C@@H]1C[C@@H]2CNCCN2c2cccc(C3CC3)c2O1.Cl [Example 48, (4aR,6S)-8-Cyclopropyl-6-(methoxymethyl)-2,3,4,4a,5,6-hexahydro-1H-pyrazino[2,1-d][1,5]benzoxazepine hydrochloride] | < 20 | > 70 | + (from 10 to 30) | – | < 83.3 | – |
| COC[C@@H]1C[C@@H]2CNCCN2c2cc(F)cc(C3CC3)c2O1.Cl [Example 49, (4aR,6S)-8-Cyclopropyl-10-fluoro-6-(methoxymethyl)-2,3,4,4a,5,6-hexahydro-1H-pyrazino[2,1-d][1,5]benzoxazepine hydrochloride] | < 20 | > 70 | ++ (from >30 to 100) | – | < 83.3 | – |
| COC[C@@H]1C[C@@H]2CNCCN2c2cccc(F)c2O1.Cl [Example 50, (4aR,6S)-8-Fluoro-6-(methoxymethyl)-2,3,4,4a,5,6-hexahydro-1H-pyrazino[2,1-d][1,5]benzoxazepine hydrochloride] | 20 to 200 | > 70 | ++ (from >30 to 100) | – | < 83.3 | – |
| COC[C@@H]1C[C@@H]2CNCCN2c2c(F)c(F)c(F)c(Cl)c2O1.Cl [Example 55, (4aR,6S)-8-Chloro-9,10,11-trifluoro-6-(methoxymethyl)-2,3,4,4a,5,6-hexahydro-1H-pyrazino[2,1-d][1,5]benzoxazepine hydrochloride] | < 20 | > 70 | +++ (>100) | +++ (>100) | – | – |
